Experimental data taken from patent US20260373248A1, “DEGRADABLE PEPTOIDS” (Medici Therapeutics, Inc., priority 2023, published 2026).
Non-standard residues stand in square brackets, D forms with d. Residues, ends and D or L forms follow the SMILES beside them. *: point of attachment. N(3-lauroyloxypropyl)Gly = CCCCCCCCCCCC(=O)OCCCNCC(=O)O; Gly(N-(CH2)3O-octanoyl) = CCCCCCCC(=O)OCCCNCC(=O)O; N(3-imidazol-1-ylpropyl)Gly = O=C(O)CNCCCn1ccnc1; Gly(N-3-morpholinopropyl) = O=C(O)CNCCCN1CCOCC1; N(2-ethylhexyl)Gly = CCCCC(CC)CNCC(=O)O; NDecylGly = CCCCCCCCCCNCC(=O)O; NHexGly = CCCCCCNCC(=O)O; For = O=C*

How the values were obtained:
[1] = Delivery vehicle size and polydispersity by dynamic light scattering; assay type: physicochemical; details: DLS in PBS; peptoid:DSPC:Cholesterol:DMG-PEG2000 weight ratio 20:1.79:7.16:1.84, mRNA
Method: Delivery vehicles were formulated by rapid microfluidic mixing using a high throughput microfluidic system. Briefly, ethanol solutions containing peptoid, DSPC, Cholesterol, DMG-PEG2000 at weight ratio of 20:1.79:7.16:1.84, were mixed with 10 mM sodium citrate buffer (pH 5.0) containing synthesized mRNA at a ratio of 1:3 by volume. Peptoid based LNPs were subsequently dialyzed against 1-2 liters of tris-sucrose buffer (TS7, pH 7.4) overnight at 4 °C. Delivery vehicle size and polydispersity (PDI) was measured by dynamic light scattering in PBS.
(§1) Degradable peptoids described herein were formulated as various formulations described in Table 3 according to the procedure described in Example 2. Particle size was characterized as described in Example 2, and […] encapsulation of mRNA was determined as described in Example 3.

mRNA = mRNA encapsulation (modified Quant-iT RiboGreen assay); assay type: physicochemical; details: RiboGreen, without vs with Triton X-100
Method: The mRNA concentration and the percentage of encapsulated mRNA were determined using fluorescent-based Quant-iT RiboGreen RNA Reagent Kit (Life Technologies, Waltham, MA) as described previously. To determine the mRNA concentration, PNPs was incubated with […] for 10 min to release entrapped mRNA, followed by addition of RiboGreen RNA reagent. The fluorescence intensity of mRNA-RiboGreen reagent complex (excitation at 485 nm and emission at 530 nm) was detected using a microplate reader. The ratio of fluorescence without and with Triton X-100 were used to calculate the percentage of encapsulated mRNA.
as §1

firefly luciferase = experiment: In vivo firefly luciferase expression after intravenous injection of fLuc mRNA delivery vehicles (IVIS imaging); parameters: species or system female Balb/c mice; details: mice, 2.5 ug fLuc mRNA intravenously, 6 hours post-injection
Method: (§2) All animal studies were conducted under accreditation by the California State Department of Public Health and under supervision of IACUC and Veterinarian Supervision. For imaging studies, female Balb/c mice (6-8 weeks old) were obtained and acclimatized for a minimum of 3 days prior to experiments. The animals were maintained on a 12 hour light cycle in a temperature and humidity controlled room. A daily health check was performed as well as food and water check. For dosing, mice were injected with 2.5 ug fLuc mRNA-containing Nutshells intravenously in 100 μL total injection value. At 6 hours post-injection, mice were anesthetized with isoflurane, injected IP with 30 mg/mL D-luciferin at a dose of 10 μL per gram bodyweight intraperitoneally. Imaging was done 10 minutes post D-luciferin injection using an IVIS Spectrum Imaging System (Caliper Life Sciences). Immediately after in vivo imaging, mice were terminally bled by cardiac puncture and euthanized. The organs of interest were harvested, placed in black 24-well plates, and imaged. Living Image software (Perkin Elmer) was used to quantify the total photon flux in regions of interest.
Luciferase expression in these formulations was also determined as described in Example 4.

hEPO = experiment: Quantification of hEPO in serum after IV injection of mRNA (Human EPO ELISA); assay type: in vivo; details: Balb/c mice, 2.5 μg mRNA IV, serum after 6 hours
Method: Balb/c mice were treated with 2.5 μg of mRNA coding for human erythropoiten via IV injection according to a similar method as in Example 4. hEPO protein in the serum was quantified after 6 hours using the Human EPO ELISA Kit from Invitrogen (catalog #BMS2035-2). Wash buffer (PBS with 1% tween 20) and assay buffer (PBS with 1% tween 20, 10% BSA) were prepared from a 20× concentrate with milli-Q water. Serum samples were diluted with PBS according to expected EPO concentration, with a 50× dilution for low expression samples and up to a 30,000× dilution for samples expected to have high expression. Microwell strips were washed in a plate washer with wash buffer and tapped on an absorbent pad to remove excess buffer. 100 μL of sample diluent were added to each well that will be used for the standard curve. 50 μL of sample diluent was added to each sample well.
The standard curve was prepared by reconstituting the human erythropoietin standard by adding the volume of water listed on the vial label. Standard was swirled gently and allowed to reconstitute for 10 minutes prior to use, then 100 μL is added to standard wells and mixed well. 100 μL from standard wells were then transferred to sample wells and mixed well. This was repeated 5 times to produce 2 columns of standard dilutions from 100 to 1.6 mIU/mL. 100 μL was discarded from the last microwells. The final 2 wells contained 100 μL of sample diluent and served as a blank. An external standard was also included to facilitate a mIU/mL conversion to ng/mL. The same serial dilution method was repeated starting with the external standard at 6.25 ng/mL. Once the standards were added, 50 μL of each sample was added in duplicate to the sample wells. Next, the biotin-conjugate was prepared by diluting 1:100 in assay buffer. 50 μL of biotin-conjugate was added to all wells and the plate was covered with a plate seal and shaken at room temperature for 1 hour. During the last few minutes of shaking, streptavidin-HRP was prepared by diluting 1:100 in assay buffer. The plate was washed on a plate washer and tapped on an absorbent pad to remove remaining wash buffer.
100 μL of the diluted streptavidin-HRP was added to each well and the plate was sealed and shaken for 15 minutes at room temperature. After 15 minutes, the plate seal was removed and the plate was washed on a plate washer and remaining wash buffer tapped out on an absorbent pad. 100 μL of TMB substrate was added to all wells and the plate was incubated for 10 minutes at room temperature out of direct light. Color development was checked every few minutes and the assay was stopped when the highest standard was dark blue. The reaction was stopped by pipetting 100 μL of stop solution into each well. Immediately after stop solution was added, the plate was gently tapped to ensure the solution was mixed. Absorbance was then read at 450 nm for each well. A standard curve was plotted for both the kit-provided standards (mIU/mL) and the external standard (ng/mL) and fit using Prism. Sample absorbances that fell within the standard curve were interpolated and adjusted for dilution (including a 2× assay dilution). Samples that were not within the standard curve were repeated at an adjusted dilution.

luciferase = experiment: Luciferase expression after local (intramuscular or subcutaneous) administration of mRNA; assay type: in vivo; details: mRNA 0.01 mpk, 6 hours; for IM Flux: intramuscular; for SC Flux: subcutaneous
Method: as §2
Aminolipidated peptoids were also effective for local administration of mRNA through subcutaneous (S.C.) or intramuscular (I.M.) routes of administration. For these examples, mRNA was administered at a dose of 0.1 mpk for intratomoral, or 0.01 mpk for subcutaneous and intramuscular administration, and the resulting bioluminescence quantified after 6 hours according to a similar procedure as described in Example 4.

CCCCCCCCCCCC(=O)OCCCN(CC(=O)N(CCCOC(=O)CCCCCCCCCCC)CC(=O)N(CC(=O)N(CCCOC(=O)CCCCCCCCCCC)CC(=O)N(CCCOC(=O)CCCCCCCCCCC)CC(=O)N(CC(N)=O)CC(CC)CCCC)CC(CC)CCCC)C(=O)CNCCCn1ccnc1 (stereo not drawn) [Compound 68] (H-[N(3-imidazol-1-ylpropyl)Gly][N(3-lauroyloxypropyl)Gly][N(3-lauroyloxypropyl)Gly][N(2-ethylhexyl)Gly][N(3-lauroyloxypropyl)Gly][N(3-lauroyloxypropyl)Gly][N(2-ethylhexyl)Gly]-NH2)
PDI [1]: 0.178 | Particle Size [1]: 87.2 nm | mean percent encapsulation of RNA (mRNA): 79.7% | Total Flux (firefly luciferase): 4.20E+08 p/s | hEPO (hEPO): 72.6 ng/mL | IM Flux (luciferase): 5.10E+06 p/s | SC Flux (luciferase): 3.39E+08 p/s

CCCCCCCCCCCC(=O)OCCCN(CC(=O)N(CCCOC(=O)CCCCCCCCCCC)CC(=O)N(CCCCCC)CC(=O)N(CCCOC(=O)CCCCCCCCCCC)CC(=O)N(CCCOC(=O)CCCCCCCCCCC)CC(=O)N(CCCCCC)CC(N)=O)C(=O)CN(C=O)CCCN1CCOCC1 [Compound 71] (For-[Gly(N-3-morpholinopropyl)][N(3-lauroyloxypropyl)Gly][N(3-lauroyloxypropyl)Gly][NHexGly][N(3-lauroyloxypropyl)Gly][N(3-lauroyloxypropyl)Gly][NHexGly]-NH2)
PDI [1]: 0.238 | Particle Size [1]: 86.9 nm | mean percent encapsulation of RNA (mRNA): 13.1% | Total Flux (firefly luciferase): 4.43E+08 p/s | hEPO (hEPO): 38.1 ng/mL | IM Flux (luciferase): 3.61E+08 p/s | SC Flux (luciferase): 9.18E+07 p/s

CCCCCCCCCCCC(=O)OCCCN(C=O)CC(=O)N(CCCOC(=O)CCCCCCCCCCC)CC(=O)N(CC(=O)N(CCCN1CCOCC1)CC(=O)N(CC(=O)N(CCCOC(=O)CCCCCCCCCCC)CC(=O)N(CCCOC(=O)CCCCCCCCCCC)CC(N)=O)CC(CC)CCCC)CC(CC)CCCC (stereo not drawn) [Compound 91] (For-[N(3-lauroyloxypropyl)Gly][N(3-lauroyloxypropyl)Gly][N(2-ethylhexyl)Gly][Gly(N-3-morpholinopropyl)][N(2-ethylhexyl)Gly][N(3-lauroyloxypropyl)Gly][N(3-lauroyloxypropyl)Gly]-NH2)
hEPO (hEPO): 17.4 ng/mL | IM Flux (luciferase): 2.44E+08 p/s | SC Flux (luciferase): 4.22E+07 p/s

CCCCCCCCCCN(C=O)CC(=O)N(CCCOC(=O)CCCCCCC)CC(=O)N(CC(=O)N(CCCn1ccnc1)CC(=O)N(CC(=O)N(CCCOC(=O)CCCCCCC)CC(=O)N(CCCCCCCCCC)CC(N)=O)CC(CC)CCCC)CC(CC)CCCC (stereo not drawn) [Compound 114] (For-[NDecylGly][Gly(N-(CH2)3O-octanoyl)][N(2-ethylhexyl)Gly][N(3-imidazol-1-ylpropyl)Gly][N(2-ethylhexyl)Gly][Gly(N-(CH2)3O-octanoyl)][NDecylGly]-NH2)
PDI [1]: 0.245 | Particle Size [1]: 119.7 nm | mean percent encapsulation of RNA (mRNA): 40.7% | Total Flux (firefly luciferase): 2.06E+08 p/s | hEPO (hEPO): 23.7 ng/mL | IM Flux (luciferase): 9.30E+07 p/s | SC Flux (luciferase): 1.03E+08 p/s

CCCCCCCC(=O)OCCCN(C=O)CC(=O)N(CCCOC(=O)CCCCCCC)CC(=O)N(CCc1ccccc1)CC(=O)N(CC(=O)N(CCCn1ccnc1)CC(=O)N(CCCOC(=O)CCCCCCC)CC(=O)N(CCc1ccccc1)CC(=O)N(CCCOC(=O)CCCCCCC)CC(=O)N(CC(N)=O)CC(CC)CCCC)CC(CC)CCCC (stereo not drawn) [Compound 123]
PDI [1]: 0.201 | Particle Size [1]: 118.1 nm | mean percent encapsulation of RNA (mRNA): 56.3% | hEPO (hEPO): 172 ng/mL | IM Flux (luciferase): 6.45E+06 p/s | SC Flux (luciferase): 1.01E+07 p/s
